# From patent US12617795B2, “Substituted 6,7-dihydro-5H-pyrrolo[3,4-d]pyrimidines, 5,7-dihydrofuro[3,4-d]pyrimidines, and pyrido[2,3-d]pyrimidines as KCC2 modulators” (Astrazeneca AB, priority 2020, dated 2026)
# Target: T1, KCC2 (Homo sapiens, UniProt Q9H2X9)
# T1 construct: expressed in transfected cells; host or cells: HEK293 cells electroporated (Maxcyte STX) with the pcDNA3.1 KCC2 plasmid
# T1 sequence (Q9H2X9 1-1139): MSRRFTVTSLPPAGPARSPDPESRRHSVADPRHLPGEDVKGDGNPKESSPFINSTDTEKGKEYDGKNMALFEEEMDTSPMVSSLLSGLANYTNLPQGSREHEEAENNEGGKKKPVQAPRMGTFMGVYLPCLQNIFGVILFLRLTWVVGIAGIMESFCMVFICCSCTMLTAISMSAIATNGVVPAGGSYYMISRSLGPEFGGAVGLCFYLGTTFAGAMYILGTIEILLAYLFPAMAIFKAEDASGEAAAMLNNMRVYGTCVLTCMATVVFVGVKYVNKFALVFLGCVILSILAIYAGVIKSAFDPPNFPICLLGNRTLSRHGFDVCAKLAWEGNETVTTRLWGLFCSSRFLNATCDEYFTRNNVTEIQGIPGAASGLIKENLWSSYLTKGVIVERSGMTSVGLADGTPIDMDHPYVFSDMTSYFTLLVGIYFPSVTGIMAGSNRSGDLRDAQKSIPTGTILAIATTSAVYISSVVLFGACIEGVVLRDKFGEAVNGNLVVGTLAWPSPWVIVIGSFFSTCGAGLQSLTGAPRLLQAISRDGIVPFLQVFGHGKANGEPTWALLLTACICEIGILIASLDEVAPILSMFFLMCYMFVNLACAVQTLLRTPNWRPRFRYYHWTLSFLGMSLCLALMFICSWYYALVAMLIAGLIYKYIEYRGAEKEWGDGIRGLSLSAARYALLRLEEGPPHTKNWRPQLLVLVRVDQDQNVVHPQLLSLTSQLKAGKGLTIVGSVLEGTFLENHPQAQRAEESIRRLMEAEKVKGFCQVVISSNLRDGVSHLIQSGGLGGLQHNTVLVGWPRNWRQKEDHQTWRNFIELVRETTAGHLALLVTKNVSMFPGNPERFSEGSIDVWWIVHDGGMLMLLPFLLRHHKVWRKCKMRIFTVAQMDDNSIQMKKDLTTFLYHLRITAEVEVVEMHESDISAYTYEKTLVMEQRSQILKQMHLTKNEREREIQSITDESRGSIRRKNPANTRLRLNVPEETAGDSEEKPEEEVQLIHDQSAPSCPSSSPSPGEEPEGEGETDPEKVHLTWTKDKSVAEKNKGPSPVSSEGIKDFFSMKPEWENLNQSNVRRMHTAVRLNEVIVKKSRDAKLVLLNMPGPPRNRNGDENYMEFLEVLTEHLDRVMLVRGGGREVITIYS
# Assay: KCC2 thallium transport FLIPR-based assay (Tl+ influx in HEK293 cells expressing KCC2)
# Format: cell-based
# Conditions: 90 min compound incubation at RT, thallium flux at 120 s used to determine EC50
# Protocol: A thallium transport FLIPR-based assay was used to measure the ability of compounds to activate KCC2. KCC2 activity is assessed by measuring KCC2-dependent Tl^+ influx in a KCC2-expressing cell. The assay protocol was based on those described by Delpire et al (Proc Natl Acad Sci USA. 2009 Mar. 31; 106(13): 5383-5388) and Zhang et al (Journal of Biomolecular Screening 15(2): 2010).
# KCC2 was synthesised and codon optimised by GeneArt based on the Uniprot sequence Q9H2X9. The final sequence was subcloned into pcDNA3.1.
# HEK293 cells were grown in 10 layer cell stacks at 37° C., 5% CO2, in DMEM, 10% fetal calf serum and 2 mM Glutamine. The cells were detached by removing the media and washing the cell stack with 100 ml of PBS. The PBS was removed and 100 ml of 1× TrypLE was added and the cell stack returned to 37° C. for 5 min. The detached cells were then counted in a Vi Cell counter and spun for 10 min at 1250 rpm in a Sorval Legend centrifuge. The cells were diluted down in Maxcyte electroporation buffer at 4× the final concentration and spun as before. The cell pellet was resuspended at 1×10^8/cells per ml and electroporated in a Maxcyte Cl 2.2 bag on a Maxcyte STX machine via the HEK293 programme with 200 ug/ml of plasmid DNA. The cells were then allowed to recover for 30 min before adding to 500 ml of PBS and then counted again on the Vi Cell. The cells were then frozen down in planer controlled rate freeze in 90% complete media, 10% DMSO.
# All reagents were dispensed using a Mulitdrop Combi unless stated otherwise. All FluXOR Invitrogen propriety buffer compositions are mentioned in tables below.
# HEK293 KCC2 cells were harvested at a density of 3.33×10^5 cells/mL in complete media (DMEM, Sigma, D6546, 10% fetal calf serum and 1% Glutamax) and 30 μL per well seeded into 384-well PDL coated black-clear plates (Corning, 354663). Leave cells at RT for 20 mins to settle before incubating for 48 h at 37° C., 5% CO2. Following incubation, perform three wash steps in HBSS (Sigma, H6648) using a Biotek cell washer with the final aspiration leaving 20 μL HBSS residual volume in each well. A further 20 μL per well of thallium loading dye is then added (1 h, RT, protect from light). 5 μL of test compounds (100 μM top concentration, 1:2 dilutions, 12 point curve) were added using the FLIPR TETRA and incubated at RT for 90 min in the dark. Following compound incubation, the thallium flux response is read on FLIPR TETRA (ex. 515-575 nm) which is initiated by FLIRR TETRA dispensing 5 μL stimulus buffer into each well. Recordings are measured every 1 second for 120 seconds. Thallium flux at 120 s used to determine EC50.
# Compound buffer: Assay buffer with 1 μL of bumetanide per 10 ml.
row,SMILES,EC50 [nM]
1,"CC(C)N1Cc2c(Nc3ccc(C(F)(F)C(F)(F)F)cc3)nc(N3CCO[C@H](C)C3)nc2C1=O [Example 61, 2-[(2R)-2-methylmorpholin-4-yl]-4-{[4-(pentafluoroethyl)phenyl]amino}-6-(propan-2-yl)-5,6-dihydro-7H-pyrrolo[3,4-d]pyrimidin-7-one]",5510
2,"C[C@@H]1CN(c2nc(Nc3ccc(C4CCC4)cc3)c3c(n2)C(=O)N(CCN(C)C)C3)CCO1 [Example 75, 4-[(4-cyclobutylphenyl)amino]-6-[2-(dimethylamino)ethyl]-2-[(2R)-2-methylmorpholin-4-yl]-5,6-dihydro-7H-pyrrolo[3,4-d]pyrimidin-7-one]",3770
3,"CC(C)N1Cc2c(Nc3ccc(C4CCCCC4)cc3)nc(N3CCOC(C4CC4)C3)nc2C1=O (centres unmarked) [Example 2, 4-((4-cyclohexylphenyl)amino)-2-(2-cyclopropylmorpholino)-6-isopropyl-5,6-dihydro-7H-pyrrolo[3,4-d]pyrimidin-7-one]",672
4,"C[C@@H]1CN(c2nc(Nc3ccc(C4CCCCC4)cc3)c3cc(C(N)=O)cnc3n2)CCO1 [Example 104, (R)-4-((4-cyclohexylphenyl)amino)-2-(2-methylmorpholino)pyrido[2,3-d]pyrimidine-6-carboxamide]",1630
5,"C#CCCCCCOc1ccc(-c2ccc(Nc3nc(N4CCOC(C5CC5)C4)nc4c3CN(C(C)C)C4=O)cc2)cc1 (centres unmarked) [Example 52, 2-(2-cyclopropylmorpholin-4-yl)-4-({4′-[(hept-6-yn-1-yl)oxy][1,1′-biphenyl]-4-yl}amino)-6-(propan-2-yl)-5,6-dihydro-7H-pyrrolo[3,4-d]pyrimidin-7-one]",146
6,"CC(C)N1Cc2c(Nc3ccc(C4CCCCC4)cc3)nc(N3CCOC(CCO)C3)nc2C1=O (centres unmarked) [Example 27, 4-[(4-cyclohexylphenyl)amino]-2-[2-(2-hydroxyethyl)morpholin-4-yl]-6-(propan-2-yl)-5,6-dihydro-7H-pyrrolo[3,4-d]pyrimidin-7-one]",3580
7,"C[C@@H]1CN(c2nc(Nc3ccc(C4CCCCC4)cc3)c3cc(N)cnc3n2)CCO1 [Example 108, (R)—N4-(4-cyclohexylphenyl)-2-(2-methylmorpholino)pyrido[2,3-d]pyrimidine-4,6-diamine]",1970
8,"CC(C)N1Cc2c(Nc3ccc(C4CCCCC4)cc3)nc(N3CCOCC3)nc2C1=O [Example 11, 4-[(4-cyclohexylphenyl)amino]-2-(morpholin-4-yl)-6-(propan-2-yl)-5,6-dihydro-7H-pyrrolo[3,4-d]pyrimidin-7-one]",2010
9,"C1=C(c2nc(Nc3ccc(C4CCCCC4)cc3)c3cccnc3n2)CCOC1 [Example 98, N-(4-cyclohexylphenyl)-2-(3,6-dihydro-2H-pyran-4-yl)pyrido[2,3-d]pyrimidin-4-amine]",5530
10,"COc1cnc2nc(N3CCO[C@H](C)C3)nc(Nc3ccc(C4CCCCC4)cc3)c2c1 [Example 106, (R)—N-(4-cyclohexylphenyl)-6-methoxy-2-(2-methylmorpholino) pyrido[2,3-d]pyrimidin-4-amine]",1850
11,"C#CCN1Cc2c(Nc3ccc(C(C)C)cc3)nc(N3CCOCC3)nc2C1=O [Example 76, 2-(morpholin-4-yl)-4-{[4-(propan-2-yl)phenyl]amino}-6-(prop-2-yn-1-yl)-5,6-dihydro-7H-pyrrolo[3,4-d]pyrimidin-7-one]",6890

# More lines, now with the values ahead:
row,EC50 [nM],SMILES
1,917,"CC(C)N1Cc2c(Nc3ccc(-c4ccc(OCCNC(=O)OC(C)(C)C)cc4)cc3)nc(N3CCOC(C4CC4)C3)nc2C1=O (centres unmarked) [Example 66, tert-butyl {2-[(4′-{[2-(2-cyclopropylmorpholin-4-yl)-7-oxo-6-(propan-2-yl)-6,7-dihydro-5H-pyrrolo[3,4-d]pyrimidin-4-yl]amino}[1,1′-biphenyl]-4-yl)oxy]ethyl}carbamate]"
2,5430,"CC(C)c1ccc(Nc2nc(N3C[C@H](C)O[C@@H](C)C3)nc3c2CN(C(C)C)C3=O)cc1 [Example 8, 2-[(2S,6S)-2,6-dimethylmorpholin-4-yl]-6-(propan-2-yl)-4-{[4-(propan-2-yl)phenyl]amino}-5,6-dihydro-7H-pyrrolo[3,4-d]pyrimidin-7-one]"
3,4500,"CC(C)c1ccc(Nc2nc(N3CCO[C@H](C)C3)nc3c2CN(C(C)C)C3=O)cc1 [Example 7, 2-[(2R)-2-methylmorpholin-4-yl]-6-(propan-2-yl)-4-{[4-(propan-2-yl)phenyl]amino}-5,6-dihydro-7H-pyrrolo[3,4-d]pyrimidin-7-one]"
4,4890,"CC(C)N1Cc2c(Nc3ccc(C4CCCCC4)cc3)nc(N3CCOCC3CO)nc2C1=O (centres unmarked) [Example 32, 4-[(4-cyclohexylphenyl)amino]-2-[3-(hydroxymethyl)morpholin-4-yl]-6-(propan-2-yl)-5,6-dihydro-7H-pyrrolo[3,4-d]pyrimidin-7-one]"
5,1350,"C[C@@H]1CN(c2nc(Nc3ccc(C4CCCCC4)cc3)c3cc(Br)cnc3n2)CCO1 [Example 97, 6-bromo-N-(4-cyclohexylphenyl)-2-[(2R)-2-methylmorpholin-4-yl]pyrido[2,3-d]pyrimidin-4-amine]"
6,6300,"CC(C)N1Cc2c(Nc3ccc(C4CCCCC4)cc3)nc(N(C)CC(F)F)nc2C1=O [Example 36, 4-[(4-cyclohexylphenyl)amino]-2-[(2,2-difluoroethyl)(methyl)amino]-6-(propan-2-yl)-5,6-dihydro-7H-pyrrolo[3,4-d]pyrimidin-7-one]"
7,6300,"CC(C)N1Cc2c(Nc3ccc(C4CCCCC4)cc3)nc(N(C)CCc3ccccn3)nc2C1=O [Example 37, 4-[(4-cyclohexylphenyl)amino]-2-{methyl[2-(pyridin-2-yl)ethyl]amino}-6-(propan-2-yl)-5,6-dihydro-7H-pyrrolo[3,4-d]pyrimidin-7-one]"
8,769,"CC(C)N1Cc2c(Nc3ccc(C4CCCCC4)cc3)nc(N3CCOC(C4CC4)C3)nc2C1=O (single isomer, unassigned) [Example 15, 4-[(4-cyclohexylphenyl)amino]-2-(2-cyclopropylmorpholin-4-yl)-6-(propan-2-yl)-5,6-dihydro-7H-pyrrolo[3,4-d]pyrimidin-7-one]"
9,253,"C#CCCC1(CCOc2ccc(-c3ccc(Nc4nc(N5CCOC(C6CC6)C5)nc5c4CN(C(C)C)C5=O)cc3)cc2)N=N1 (centres unmarked) [Example 54, 4-[(4′-{2-[3-(but-3-yn-1-yl)-3H-diaziren-3-yl]ethoxy}[1,1′-biphenyl]-4-yl)amino]-2-(2-cyclopropyl-morpholin-4-yl)-6-(propan-2-yl)-5,6-dihydro-7H-pyrrolo[3,4-d]pyrimidin-7-one]"
